Earlier results on four molecules are cited in patent publication US20020039567A1, “Methods of treating bone or cartilage conditions by the administration of creatine” (priority 1998, published 2002).

For data set [1], the system named is CK activity in chondroblasts and osteoblasts. The conditions noted are these: cited from earlier work.
Data set [2] relates to chick limb bud mesenchymal cells. The conditions noted are these: cited from earlier work; for mineralization: addition of 1 and 2 mM ATP or 2 mM PCr; for rate of cell proliferation, rate of matrix synthesis, mean crystallite length, rate of mineral deposition: contrasted with cultures supplemented with inorganic phosphate.
In the next data set the test system is SaOS-2 cells. The conditions noted are these: cited from earlier work.
Another data set deals with embryonic chick femora. The conditions noted are these: cited from earlier work.
Data set [3] concerns CK activity in rat epiphyseal cartilage cells. The conditions noted are these: cited from earlier work.

On to `CC/C(=C(\c1ccccc1)c1ccc(OCCN(C)C)cc1)c1ccccc1` [tamoxifen], for which the “effect of tamoxifen by itself” value in data set [1] (high concentrations) is “stimulatory effects”. The “effect of E2 in presence of tamoxifen” value in data set [1] (high levels of tamoxifen) is “inhibited”.

Regarding `Nc1ncnc2c1ncn2[C@@H]1O[C@H](COP(=O)(O)OP(=O)(O)OP(=O)(O)O)[C@@H](O)[C@H]1O` [ATP], in data set [2], the mineralization entry is recorded as “promoted” and the “rate of cell proliferation, rate of matrix synthesis, mean crystallite length, rate of mineral deposition” value is listed as “does not alter”.

As to phosphocreatine [PCr], the “alkaline phosphatase (ALP) activity” value in the data set on SaOS-2 cells is on record as “increases”. In the data set with embryonic chick femora (0.1 mM in chick embryo extract with 20% horse serum), the “perichondral ossification in the diaphysis” value is “accelerated”. In addition, the “deposition of calcium in the cartilage matrix of the epiphysis” value in the data set on embryonic chick femora (very crude preparations at 0.1 mM in chick embryo extract with 20% horse serum) is “accelerated”. In data set [2], the mineralization result is “promoted” and the “rate of cell proliferation, rate of matrix synthesis, mean crystallite length, rate of mineral deposition” value was “does not alter”.

Regarding `C[C@]12CC[C@@H]3c4ccc(O)cc4CC[C@H]3[C@@H]1CC[C@@H]2O` [E2, 17b-estradiol], the “increase in CK activity” value in data set [3] is reported as 40%.
